According to article PMC10196870, “Structural insights into the substrate recognition of serine palmitoyltransferase from Sphingobacterium multivorum” (The Journal of Biological Chemistry, 2023):
“Also recorded” adds a separate entry of the source. Marks after values point to notes of the source that are not given here.

What was measured:
[1] = target: T1, Sphingobacterium multivorum SPT (Sphingobacterium multivorum, UniProt A7BFV6); assay: Spectroscopic titration of SPT with amino acids (dissociation constants, external aldimine formation); type: binding; conditions: 10 μM SPT, pH 7.5, 25 °C
T1 construct: harboring the plasmid that express the full length of S. multivorum SPT; made in house; host or cells: Escherichia coli BL21 (DE3) pLysS
Description: Next, binding of the amino acids to the S. multivorum SPT was examined by spectroscopic titration.
Figure 3 Spectroscopic analysis of the reaction of the Sphingobacterium multivorum SPT with L-Ala or L-Thr.A, the UV/vis absorption spectra of SPT (10 μM) in the presence of 800 mM L-Ala were measured at time intervals of 10 min for 500 min. Each line numbered 1 to 12 corresponds to the spectrum at 0, 10, 20, 30, 40, 50, 60, 80, 90, 110, 150, and 500 min, respectively, after SPT was mixed with L-Ala. […] B, spectroscopic titration of SPT with L-Ala. Absorbance at 420 nm in the presence of 0, 50, 100, 200, 400, and 600 mM L-Ala at 0 min was measured, and apparent molar absorptivities at 420 nm were plotted against L-Ala concentrations. […] C, absorption spectra of SPT (10 μM) in the presence of 0, 1.3, 3.7, 7.4, 12.2, 18.1, 24.9, 32.7, 41.3, and 51.6 mM L-Thr (lines 1–10, respectively). […] SPT, serine palmitoyltransferase.
The titration assay was carried out by using 10 μM SPT in 100 mM potassium phosphate and 0.1 mM EDTA, pH 7.5, at 25 °C. The changes of the 422 nm absorption intensities of SPT upon addition of amino acids were plotted against the final concentrations of the amino acids, and the Kd values were calculated by fitting to a hyperbolic saturation curve using Igor Pro 6.37. software. UV/vis spectra of SPT were recorded with a Hitachi U-3310 spectrophotometer.

[2] = target: T1, Sphingobacterium multivorum SPT; assay: Steady-state kinetic analysis of SPT (LCB production from amino acid and PalCoA, quantified by TLC fluorescence); type: biochemical; conditions: 1 mM PalCoA; for Kmapp / kcatapp: mean ± SD
Description: The assay was performed as follows; 200 mM of amino acid (glycine, L-Ala, L-Ser, L-Hse, or L-Thr) was incubated with 1 mM PalCoA and 100 μM SPT in 100 μl of 100 mM potassium phosphate, pH 7.5, for 60 min at 37 °C. The reactions were terminated by addition of the equal volume of 2 N ammonia. Lipids were extracted by successive addition and mixing of 750 μl of chloroform/methanol (1:2, v/v), 250 μl of chloroform, and 250 μl of 1% KCl. Phases were separated by centrifugation, and the organic phase was recovered. The aqueous phase was reextracted with 200 μl of chloroform, and, after centrifugation, the organic phase was combined with the organic phase from the first extraction. The organic phase was washed with water/chloroform/methanol (47:48:3, v/v), dried, and suspended in chloroform/methanol (2:1, v/v). The extracted lipids were resolved by normal-phase TLC on Silica Gel 60 high-performance TLC plates (Merck) with chloroform/methanol/2 N ammonia (40:10:1, v/v) or chloroform/methanol/triethanol amine (95:5:10, v/v) and visualized by spraying with ninhydrin reagent followed by gentle heating. For the quantitative analysis, the UV-fluorescence intensities of the reaction products on TLC plates were visualized by a Fusion chemiluminescence imaging system using a UV-light box and analyzed by a FUSION Capt software (VILBER; https://www.garvan.org.au/research/capabilities/molecular-genetics/ documents/fusion_manual_2016.pdf).
Steady-state kinetic parameters were determined by varying the concentrations of the amino acid substrate in the presence of 1 mM PalCoA in 100 μl of 100 mM potassium phosphate, pH 7.5, at 37 °C. The concentration of SPT and the incubation time were 1 μM and 10 min for L-Ser; 5 μM and 10 min for L-Hse; 20 μM and 30 min for L-Ala; and 100 μM and 120 min for Gly. The reaction termination, lipid extraction, TLC analysis, and quantification of the reaction products on TLC plates were described above. The apparent velocities (min^–1) versus amino acid concentrations (mM) plots were fitted to the Michaelis–Menten equation, v = Vmax[S]/(Km+[S]), by nonlinear regression using the Igor Pro 6.37 (https://www.wavemetrics.com/forum/news-and-announcements/igor-pro-637-released). software (Wave Matrix Inc.) to determine the apparent kinetic parameters, kcatapp and Kmapp , of SPT for each amino acid substrate.
The reactions were carried out in the presence of 1 mM PalCoA as described in Experimental procedures. Apparent rate constants, obtained by dividing the rate of the LCB production by the concentration of the enzyme, were plotted against concentrations of amino acid substrate, L-Ser (A), L-Hse (B), L-Ala (C), or glycine (D). The plots were fitted to the equation of the Michaelis–Menten mechanism, v = Vmax[S]/(Km+[S]), by nonlinear regression using the software Igor Pro (ver 6.37, WaveMetrics, Lake Oswego, OR), and the Kmappand kcatapp of SPT for each amino acid substrate were calculated. Solid line represents a theoretical curve based on the above equation. Each data point is a mean with the error bar showing standard deviation from at least three independent experiments.

[3] = target: T1, Sphingobacterium multivorum SPT; assay: TLC analysis of LCB formation from amino acids by SPT (ninhydrin); type: biochemical; conditions: 200 mM amino acid, 1 mM PalCoA, 100 μM SPT, pH 7.5, 60 min, 37 °C
Description: Reaction products were extracted with solvents and separated by TLC. […] Each LCB product was quantified by the fluorescence intensity based on the standard curve obtained by using the corresponding authentic compound.

[4] = target: T1, Sphingobacterium multivorum SPT; assay: UV/vis time course of conversion of PLP and L-Ala to PMP and pyruvate by SPT (abortive transamination); type: biochemical
Description: Next, binding of the amino acids to the S. multivorum SPT was examined by spectroscopic titration. […] Therefore, the absorption at 420 nm just after SPT was mixed with L-Ala was measured and plotted against concentrations of L-Ala (Fig. 3B), and the Kd value for L-Ala was estimated as 65 ± 10 mM (Table 1). For the other amino acids, only spectral changes corresponding to the external aldimine formation between PLP and the amino acids were observed, and side reactions such as PMP formation were not detected.
Figure 3 Spectroscopic analysis of the reaction of the Sphingobacterium multivorum SPT with L-Ala or L-Thr.A, the UV/vis absorption spectra of SPT (10 μM) in the presence of 800 mM L-Ala were measured at time intervals of 10 min for 500 min. Each line numbered 1 to 12 corresponds to the spectrum at 0, 10, 20, 30, 40, 50, 60, 80, 90, 110, 150, and 500 min, respectively, after SPT was mixed with L-Ala. […] The lines represent theoretical fits to a single-exponential equation ( y=A×e^−k⋅t ), where k is 0.029 ± 0.00024 min^–1. B, spectroscopic titration of SPT with L-Ala. Absorbance at 420 nm in the presence of 0, 50, 100, 200, 400, and 600 mM L-Ala at 0 min was measured, and apparent molar absorptivities at 420 nm were plotted against L-Ala concentrations. […]

[5] = 100 mM potassium phosphate, 0.1 mM EDTA, absorption at 422 nm, mean ± SD
[6] = 100 mM potassium phosphate pH 7.5, 37 °C
[7] = reaction mixture supplemented with 0.1 mM PLP, pH 7.5, 37 °C

T1 sequence (A7BFV6 whole entry): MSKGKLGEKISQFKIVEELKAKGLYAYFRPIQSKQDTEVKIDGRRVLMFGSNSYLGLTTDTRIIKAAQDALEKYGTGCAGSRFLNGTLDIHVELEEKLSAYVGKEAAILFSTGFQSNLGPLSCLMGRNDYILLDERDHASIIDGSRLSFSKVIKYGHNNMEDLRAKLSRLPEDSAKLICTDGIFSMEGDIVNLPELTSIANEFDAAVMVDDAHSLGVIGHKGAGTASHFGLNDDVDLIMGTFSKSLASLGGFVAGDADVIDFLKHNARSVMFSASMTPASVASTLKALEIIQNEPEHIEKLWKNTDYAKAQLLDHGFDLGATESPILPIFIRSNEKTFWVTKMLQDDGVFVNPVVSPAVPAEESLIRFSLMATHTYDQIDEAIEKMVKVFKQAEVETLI

Row | Structure (SMILES) | Kd [1, 5] | Kmapp, fold larger than that for L-Ser [2] | kcatapp, fold smaller than that for L-Ser [2] | Kmapp [2, 6] | kcatapp [2, 6] | kcatapp/Kmapp (apparent catalytic efficiency) ([2]; pH 7.5, 37 °C) | LCB formation (reaction product on TLC) [3] | Kd ([1]; absorption intensity at 424 nm immediately after SPT was mixed with L-Ala (text: 420 nm)) | Kmapp [2, 7] | kcatapp [2, 7] | half-life τ1/2 of conversion of PLP and L-Ala to PMP and pyruvate ([4]; SPT (10 μM) incubated with 800 mM L-Ala) | rate constant k of single-exponential change in absorption at 420 nm and 328 nm ([4]; SPT (10 μM), 800 mM L-Ala)
1 | NCC(=O)O [Gly, glycine] | 71 ± 5.5 mM | 21 fold | 36,000 fold | 77 ± 8.1 mM | 0.008 ± 0.002 min^–1 | 0.0001 min^–1 mM^–1 | converted to corresponding LCBs |  |  |  |  | 
2 | C[C@H](N)C(=O)O [L-Ala, L-alanine] |  |  |  |  |  | 0.0037 min^–1 mM^–1 | converted to corresponding LCBs | 65 ± 10 mM | 110 ± 9.0 ^c mM | 0.42 ± 0.011 ^c min^–1 | 24.0 ± 0.2 min | 0.029 ± 0.00024 min^–1
3 | N[C@@H](CCO)C(=O)O [L-Hse, L-homoserine] | 3.6 ± 0.2 mM |  |  | 82 ± 14 mM | 4.5 ± 0.28 min^–1 | 0.055 min^–1 mM^–1 | converted to corresponding LCBs |  |  |  |  | 
4 | N[C@@H](CO)C(=O)O [L-Ser, L-serine] | 0.45 ± 0.05 mM |  |  | 3.6 ± 0.87 mM | 13 ± 1.0 min^–1 | 3.6 min^–1 mM^–1 |  |  |  |  |  | 
5 | C[C@@H](O)[C@H](N)C(=O)O [L-Thr, L-threonine] | 8.2 ± 1 mM | 23 fold |  |  |  |  | not detected; also recorded: nonproductive ligand |  |  |  |  | 
6 | NC(CO)(CO)CO [Tris, tris(hydroxymethyl)aminomethane] | 40 ± 5.6 mM |  |  |  |  |  |  |  |  |  |  | 
